Reference: patent publication US10543284B2, “Anti-c-Met antibody and anti-c-Met antibody-cytotoxic drug conjugate and pharmaceutical use thereof” (Suzhou Suncadia Biopharmaceuticals Co., Ltd., priority 2015, dated 2020)
Like-named read-outs stand apart in the source and are kept apart here. Blank lines part the entries; values can stand above or below the molecule they belong to. *1 amine or outer side, *2 acyl side, *3 side chain or, on linkers, in order; H or OH if unused. Where a SMILES comes first, the peptide text is derived from it. [ ]: non-standard residue; d: D form. X1 = CO[C@H]([C@@H](C)C(=O)[*:2])[C@@H]1C[C@@H]2C[C@@H]2N1[*:1]; Dolaproine = CO[C@@H]([C@@H]1CCCN1)[C@@H](C)C(=O)O; Dil = CC[C@H](C)[C@H](NC)[C@@H](CC(=O)O)OC; Phe(2-F) = N[C@@H](Cc1ccccc1F)C(=O)O; NMeV = CN[C@H](C(=O)O)C(C)C

Experiments:
[1] = test system: MKN45 cell; test: ATP cytotoxicity test (CellTiter-Glo, 72 hours) in MKN45; format: cell-based, human
Experimental: In order to assess the toxic effects of the ADC molecules of the present invention on cells, the ATP toxicity test was performed. ATP is an indicator of the metabolism of living cells, and the detection of ATP can reflect the effect of the toxicity of molecules on cells.
HepG2 cells (Chinese Academy of Sciences cell bank, Cat # TCHu 72) were cultivated in EMEM complete medium containing 10% FBS, and MKN45 cells were cultivated in RPMI1640 complete medium containing 10% FBS. Trypsinization was performed for 2-3 min by adding 2-3 ml trypsin, 10-15 ml complete medium was added to elute the trypsinized cells when the trypsinization was complete, and the cells were centrifuged at 1000 rpm for 3 min. The supernatant was discarded, 10-20 ml complete medium was added to resuspend the cells to obtain a single cell suspension, and the cell density was adjusted to 4×10^4 cells/ml. 0.1 ml of the above cell suspension was added to each well of a 96-well cell culture plate and cultivated in an incubator at 37° C. in 5% CO2. […] The chemiluminescence was measured by a microplate reader (VICTOR 3, PerkinElmer), and the result was analyzed by GraphPad Prism (version 5.0) software.

[2] = test system: HepG2 cell; test: ATP cytotoxicity test (CellTiter-Glo, 72 hours) in HepG2; format: cell-based, human
[3] = test system: a variety of human tumor cell lines; conditions: cited from earlier work
[4] = target: T1, human c-Met-His (Homo sapiens, UniProt P08581); test: ELISA binding of c-Met antibody to c-Met antigen; conditions: hybridoma fusion clones, ELISA read at 450 nm
T1 construct: His (C); made in house; host or cells: 293F cells
T1 sequence (P08581 25-932 limits assumed): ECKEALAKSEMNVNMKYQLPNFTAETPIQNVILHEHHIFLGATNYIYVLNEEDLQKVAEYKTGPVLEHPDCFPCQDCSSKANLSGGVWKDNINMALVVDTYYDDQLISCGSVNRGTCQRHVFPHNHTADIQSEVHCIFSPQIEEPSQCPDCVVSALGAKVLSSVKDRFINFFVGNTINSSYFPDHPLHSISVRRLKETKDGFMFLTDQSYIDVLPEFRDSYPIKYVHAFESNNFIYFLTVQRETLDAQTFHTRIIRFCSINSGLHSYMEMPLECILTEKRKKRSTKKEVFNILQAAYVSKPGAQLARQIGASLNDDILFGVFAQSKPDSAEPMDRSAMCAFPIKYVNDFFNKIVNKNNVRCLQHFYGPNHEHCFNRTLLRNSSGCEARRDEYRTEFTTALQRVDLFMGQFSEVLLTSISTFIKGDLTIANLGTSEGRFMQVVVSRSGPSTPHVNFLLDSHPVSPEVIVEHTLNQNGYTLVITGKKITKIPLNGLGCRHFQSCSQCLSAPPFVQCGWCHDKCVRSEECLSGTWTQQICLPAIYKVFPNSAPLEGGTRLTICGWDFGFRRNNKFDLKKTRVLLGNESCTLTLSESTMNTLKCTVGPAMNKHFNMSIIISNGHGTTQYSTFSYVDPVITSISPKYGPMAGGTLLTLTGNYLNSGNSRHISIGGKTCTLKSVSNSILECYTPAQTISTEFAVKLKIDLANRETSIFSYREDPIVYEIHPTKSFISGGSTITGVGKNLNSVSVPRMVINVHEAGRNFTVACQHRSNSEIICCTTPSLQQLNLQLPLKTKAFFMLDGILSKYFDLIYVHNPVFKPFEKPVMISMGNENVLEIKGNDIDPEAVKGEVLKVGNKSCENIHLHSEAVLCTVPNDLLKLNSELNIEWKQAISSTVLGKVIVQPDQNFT
Experimental: This experiment uses enzyme linked immunosorbent assay (ELISA) to detect affinity of c-Met antibody to c-Met antigen in vitro (including supernatant of hybridoma or recombinantly expressed monoclonal antibodies).
Experimental procedures: Coating buffer (PBS; Hyclone, Cat No.: SH30256.01B) was used to dilute antigen (human c-Met-His, example 1) to 2 μg/ml, which was added to 96-well plate with 100 μl/well (Costar 9018, Cat No.: 03113024) and incubated overnight at 4′C. […] The plate was read with plate reader at 450 nm.
After immunization, mice with a serum titer higher than 1:10^5 were selected for fusion. Mouse B-cells and myeloma cells (SP2/0, ATCC number: CRL-1581™) were prepared respectively in aseptic conditions and counted. […] The next day, positive clones were detected by ELISA (see Methods in Example 2).

[5] = test system: MKN45 cells; test: Inhibition of proliferation of MKN45 gastric cancer cells (CellTiter-Glo, 5 days); format: cell-based, human; conditions: monoclone culture supernatant, 5 days
Description: The clones above were selected and further cultured to obtain monoclones. After verification of binding activity by ELISA, monoclones were selected for cultivation, and the resulting supernatant was subjected to a cell viability assay. According to the experiment principle, anti-human c-Met antibodies of the invention are able to inhibit phosphorylation of c-Met expressed on the surface of human gastric cancer cell line MKN45, thereby inhibiting the proliferation of MNK45 cells.
Human gastric cancer cells (MKN45, JCRB, JCRB0254, P11) were added to a 96-well cell culture plate (costar, #3799) at 1×10^5 cells/mL and 50 μl/well. The medium was RPMI1640 medium: (GIBCO, cat #11835)+10% FBS (GIBCO-10099141). Anti-human c-Met antibodies to be tested were added at 50 μl/well, and the plate was cultured for 5 days in incubator at 37′C (Manufacture: SANYO; Equipment No. TINC035). CellTiter-Glo® Luminescent Cell Viability Assay (Promega, G7573) was used, and the proliferation of cells was detected according to the instructions. The plate was read by a PerkinElmer plate reader, TREA001-RDA-IBA100. The following formula was used to calculate the percentage proliferation of cells: % proliferation of cells=(1−cell reads in experimental group/cell reads in untreated group)×100%.

Molecule: CC[C@H](C)[C@@H]([C@@H](CC(=O)N1[C@H]2C[C@H]2C[C@H]1[C@H](OC)[C@@H](C)C(=O)N[C@@H](Cc1ccccc1F)C(=O)O)OC)N(C)C(=O)[C@@H](NC(=O)[C@@H](NC)C(C)C)C(C)C [12 g, (S)-2-((2R,3R)-3-((1S,3S,5S)-2-((3R,4S,5S)-4-((S)—N,3-dimethyl-2-((S)-3-methyl-2-(methylamino)butyramide)butyramide)-3-methoxy-5-methylheptanoyl)-2-azabicyclo[3.1.0]hexane-3-yl)-3-methoxy-2-methylpropanamido)-3-(2-fluorophenyl)propionic acid] (H-[NMeV]V[Dil][X1][Phe(2-F)]-OH)
IC50 ([1]; Homo sapiens, MKN-45): 79.4 nM
IC50 ([2]; Homo sapiens, HepG2, ND: No activity was detected): 401 nM

Molecule: CC[C@H](C)C([C@@H](CC(=O)N1CCC[C@H]1[C@H](OC)[C@@H](C)C(=O)N[C@H](C)[C@@H](O)c1ccccc1)OC)N(C)C(=O)[C@@H](NC(=O)[C@@H](NC)C(C)C)C(C)C (stereo partly shown) [MMAE, Monomethyl aurantatin E]
inhibitory activities against a variety of human tumor cell lines [3]: less than one nanomolar

Molecule: CC[C@H](C)[C@@H]([C@@H](CC(=O)N1CCC[C@H]1[C@H](OC)[C@@H](C)C(=O)N[C@@H](Cc1ccccc1)C(=O)O)OC)N(C)C(=O)[C@@H](NC(=O)[C@@H](NC)C(C)C)C(C)C [MMAF, reference compound] (H-[NMeV]V[Dil][Dolaproine]F-OH)
IC50 [1]: 0.85 nM
IC50 ([2]; ND: No activity was detected): 4.88 nM

Detection Results (OD450) [4]: 1.64
B1: Ab-5: mouse hybridoma cell monoclonal antibody; heavy chain variable region SEQ ID NO: 4, light chain variable region SEQ ID NO: 5 (antibody, V domains shown)
VH: QVQLKQSGPGLVQPSQSLSITCTVSGFSLPNYGVHWVRQSPGKGLEWLGVIWSGGSTNYAAAFVSRLRISKDNSKSQVFFEMNSLQADDTAVYYCARNHDNPYNYAMDYWGQGTTVTVSS
VL: DIVLTQSPGSLAVYLGQRATISCRANKSVSTSTYNYLHWYQQKPGQPPKLLIYLASNLASGVPARFSGSGSGTDFTLNIHPLEEEDAATYYCQHSRDLPPTFGAGTKLELKR
modifications: Murine
MKN45 inhibition percentage (%) [5]: 77.4%
